Test results from patent EP4806435A1, “DIHYDROCHROMENE-DERIVATIVE-CONTAINING THERAPEUTIC AGENT FOR CANCER” (Sumitomo Pharma Co., Ltd., priority 2023, dated 2025).

Test system: patients with recurrent malignant glioma classified as WHO grade III or IV
Test: Phase 1 dose-escalation clinical trial: safety (TEAEs, DLTs, MTD);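 also: dosing continued until unacceptable toxicity, consent withdrawal, loss to follow-up or investigator/sponsor decision, with cohorts of 1-6 patients per dose level and MTD estimated by BLRM from cumulative DLT data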
[1] = 180 mg QD (N=6), cutoff April 21, 2024
[2] = 240 mg (N=5), cutoff April 21, 2023
[3] = 240 mg QD (N=6), cutoff April 21, 2024
[4] = 360 mg QD (N=6), cutoff April 21, 2024
[5] = 480 mg daily (240 mg BID) (N=6), cutoff April 21, 2024

Method: Administration to each subject was continued until unacceptable toxicity occurred, consent was withdrawn, the subject was lost to follow-up, or discontinuation was determined by the investigator and/or the sponsor.
The present study consists of two parts: a dose-escalation part (Part 1) and a dose-expansion part (Part 2).
Each dose level was evaluated in cohorts of 1-6 patients. In all cohorts, administration of the investigational drug to the second and subsequent patients was permitted after completion of all safety assessments on Day 8 of Cycle 1 in the first patient. […] At dose level 2 in the dose-escalation part, at least three patients were required to be evaluated before escalation to a higher dose level. After completion of each cohort, the probability of observing a DLT at each dose level in the present study was updated using the BLRM based on cumulative data from the preceding cohorts, and the MTD was estimated.

## CC1(C)Oc2cc(Cl)ccc2[C@@H]2OCC3(CCN(CCn4ccnc4)CC3)C[C@H]21 [Compound 1, (4'aR,10'bR)-8'-chloro-1-[2-(1H-imidazol-1-yl)ethyl]-5',5'-dimethyl-4'a,10'b-dihydro-2'H,4'H,5'H-spiro[piperidine-4,3'-pyrano[3,2-c][1]benzopyran] diphosphate]
[1]
  TEAE: alopecia: 1 (16.7) n (%)
  TEAE: constipation: 2 (33.3) n (%)
  TEAE: decreased appetite: 1 (16.7) n (%)
  TEAE: decreased lymphocyte count: 1 (16.7) n (%)
  TEAE: decreased neutrophil count: 0 n (%)
  TEAE: decreased platelet count: 1 (16.7) n (%)
  TEAE: diarrhea: 1 (16.7) n (%)
  TEAE: dry skin: 1 (16.7) n (%)
  TEAE: fall: 2 (33.3) n (%)
  TEAE: fatigue: 0 n (%)
  TEAE: headache: 0 n (%)
  TEAE: hypertrigly-ceridaemia: 1 (16.7) n (%)
  TEAE: hyponatremia: 0 n (%)
  TEAE: increase in blood cholesterol: 0 n (%)
  TEAE: increased alanine aminotransferase: 4 (66.7) n (%)
  TEAE: increased aspartate aminotransferase: 2 (33.3) n (%)
  TEAE: maculopapular rash: 0 n (%)
  TEAE: nausea: 2 (33.3) n (%)
  TEAE: seizure: 2 (33.3) n (%)
  TEAE: vomiting: 2 (33.3) n (%)
[2]
  Number of patients with any TEAE: 5 (100) n (%)
  TEAE: constipation: 3 (60.0) n (%)
  TEAE: decreased appetite: 1 (20.0) n (%)
  TEAE: decreased lymphocyte count: 2 (40.0) n (%)
  TEAE: decreased neutrophil count: 0 n (%)
  TEAE: decreased platelet count: 0 n (%)
  TEAE: decreased white blood cell count: 0 n (%)
  TEAE: dry skin: 3 (60.0) n (%)
  TEAE: fall: 0 n (%)
  TEAE: headache: 3 (60.0) n (%)
  TEAE: hypertrigly-ceridaemia: 1 (20.0) n (%)
  TEAE: hyponatremia: 0 n (%)
  TEAE: increased alanine aminotransferase: 4 (80.0) n (%)
  TEAE: increased aspartate aminotransferase: 2 (40.0) n (%)
  TEAE: nausea: 3 (60.0) n (%)
  TEAE: seizure: 1 (20.0) n (%)
  TEAE: vomiting: 2 (40.0) n (%)
240 mg BID, dose as the present compound
  maximum tolerated dose (MTD): 480 mg daily
[3]
  Number of Patients with Any TEAE: 6 (100) n (%)
  TEAE: Confusional state: 1 (16.7) n (%)
  TEAE: Gait disturbance: 0 n (%)
  TEAE: Gastrointestinal disorder: 0 n (%)
  TEAE: Hiccups: 0 n (%)
  TEAE: Tremor: 0 n (%)
  TEAE: alopecia: 1 (16.7) n (%)
  TEAE: constipation: 3 (50.0) n (%)
  TEAE: decreased appetite: 2 (33.3) n (%)
  TEAE: decreased lymphocyte count: 2 (33.3) n (%)
  TEAE: decreased neutrophil count: 0 n (%)
  TEAE: decreased platelet count: 0 n (%)
  TEAE: diarrhea: 1 (16.7) n (%)
  TEAE: dry skin: 4 (66.7) n (%)
  TEAE: fall: 0 n (%)
  TEAE: fatigue: 1 (16.7) n (%)
  TEAE: headache: 4 (66.7) n (%)
  TEAE: hypertrigly-ceridaemia: 1 (16.7) n (%)
  TEAE: hyponatremia: 0 n (%)
  TEAE: increase in blood cholesterol: 1 (16.7) n (%)
  TEAE: increased alanine aminotransferase: 6 (100) n (%)
  TEAE: increased aspartate aminotransferase: 2 (33.3) n (%)
  TEAE: maculopapular rash: 0 n (%)
  TEAE: nausea: 4 (66.7) n (%)
  TEAE: seizure: 1 (16.7) n (%)
  TEAE: vomiting: 2 (33.3) n (%)
240 mg QD group, cutoff April 21, 2024
  serious TEAE: neoplasm progression: one
240 mg group, cutoff April 21, 2023
  serious TEAE: neoplasm progression: one
[4]
  Number of Patients with Any TEAE: 6 (100) n (%)
  TEAE: Confusional state: 0 n (%)
  TEAE: Gait disturbance: 1 (16.7) n (%)
  TEAE: Gastrointestinal disorder: 1 (16.7) n (%)
  TEAE: Hiccups: 0 n (%)
  TEAE: Tremor: 2 (33.3) n (%)
  TEAE: alopecia: 2 (33.3) n (%)
  TEAE: constipation: 2 (33.3) n (%)
  TEAE: decreased appetite: 1 (16.7) n (%)
  TEAE: decreased lymphocyte count: 0 n (%)
  TEAE: decreased neutrophil count: 1 (16.7) n (%)
  TEAE: decreased platelet count: 1 (16.7) n (%)
  TEAE: diarrhea: 2 (33.3) n (%)
  TEAE: dry skin: 0 n (%)
  TEAE: fall: 2 (33.3) n (%)
  TEAE: fatigue: 3 (50.0) n (%)
  TEAE: headache: 1 (16.7) n (%)
  TEAE: hypertrigly-ceridaemia: 1 (16.7) n (%)
  TEAE: hyponatremia: 1 (16.7) n (%)
  TEAE: increase in blood cholesterol: 2 (33.3) n (%)
  TEAE: increased alanine aminotransferase: 4 (66.7) n (%)
  TEAE: increased aspartate aminotransferase: 3 (50.0) n (%)
  TEAE: maculopapular rash: 1 (16.7) n (%)
  TEAE: nausea: 6 (100) n (%)
  TEAE: seizure: 0 n (%)
  TEAE: vomiting: 4 (66.7) n (%)
360 mg QD, cutoff April 21, 2024
  DLT (Grade 3 maculopapular rash; recovered to Grade 1 with treatment interruption): one
360 mg cohort, as of September 2023
  DLT: Grade 3 maculo-papular rash (recovered to grade 1 with dose interruption): one and One
[5]
  Number of Patients with Any TEAE: 6 (100) n (%)
  TEAE: Confusional state: 2 (33.3) n (%)
  TEAE: Gait disturbance: 2 (33.3) n (%)
  TEAE: Gastrointestinal disorder: 1 (16.7) n (%)
  TEAE: Hiccups: 2 (33.3) n (%)
  TEAE: Tremor: 0 n (%)
